Experimental data reported in patent US4136163A, “P-Menthane carboxamides having a physiological cooling effect” (Wilkinson Sword Limited, priority 1971, dated 1979).

Tests used:
[1] = literature; cited from earlier work
[2] = test system: cold receptors; experiment: Cooling effect of consumer product applied to skin (face, scalp, lips, forehead); format: in vivo, human
Procedure: Into two separate samples of the base lotion were added 2.0% by weight based on the total composition of N-ethyl-p-menthane-3-carboxamide and N,N-dimethyl-p-menthane-3-carboxamide, each into a different one of the two samples.
To the recipe was added 3.0%, based on the total composition of N-p-menth-3-oylglycine methyl ester. […]
Sodium lauryl ether sulphate, 10 g., was dispersed in 90 g. water in a high speed mill. To the dispersion was added 3.3% by weight of N-(2-hydroxy-n-propyl)-p-menthane-3-carboxamide. […]
The sodium stearate was dissolved by stirring in a warm mixture of the ethanol propylene glycol and water. To the solution was added the perfume and 3.0% of N-(2-hydroxy-n-propyl)-p-menthane-3-carboxamide and the mixture then allowed to solidify into a waxy cake. […]
This Example illustrates now the physiological cooling effect of the compounds of this invention varies according to the locality of application.
In the course of grinding there was added 3.0% of N-n-propyl-p-menthane-3-carboxamide. […]
To this liquid was added 1.0% of N-ethyl-p-menthane-3-carboxamide. A paper tissue was then soaked in the liquid.

[3] = test system: cold receptors; experiment: Threshold test: minimum quantity of compound on filter paper square on tongue giving a noticeable cooling effect, selected panel of 6 people; format: in vivo, human; conditions: panel of 6 people, cooling reported 50% of the time
Source text: For example, a controlling factor in the onset of cooling effect, its intensity and longevity will be the rate of penetration of the compounds through the epidermis and this will vary in different locations on the human body.
It will also benoted that the described test procedure is done on a statistical basis. This is necessary since sensitivity to these compounds will vary not only from compound to compound and from one part of the body to another, but also from one individual to another. Tests of this nature are commonly used in the testing of the organoleptic properties, e.g. taste, smell etc. of organic and inorganic compounds, see Kirk-Othmer: Encyclopedia of Chemical Technology, 2nd. Ed.
The following test procedure is aimed at determining the minimum quantity of the test compound required to produce a noticeable cooling effect on a person of average sensitivity, this minimum quantity being termed the threshold for that particular compound. The tests are carried out on a selected panel of 6 people of median sensitivity to 1-menthol.
To select a test panel of average sensitivity the following procedure is used. Known quantities of 1-menthol in solution in petroleum ether (bp.40-60) are placed on 5 mm. squares of filter paper, whereafter the solvent is allowed to evaporate. A panel of observers is enrolled and asked to place one impregnated square at a time on the tongue and to report on the presence or absence of a cooling effect. […] Conveniently, one starts with squares containing 2.0 μg. 1-menthol, the amount on each successive square being half that of the preceding square, i.e. the second test square will contain 1.0 μg, the third 0.5 μg and so on. Each quantity is tested on the tongue at least 10 times. In this way, the thresholds to cold receptor stimulus by 1-menthol are determined for each individual of the panel, the threshold for each individual being that amount of 1-menthol for which, in a series of not less than 10 test applications, a cooling effect is reported 50% of the time.
To test the activity of compounds according to this invention, the above procedure is repeated using only the 6 selected panel members of average sensitivity to 1-menthol. The individual thresholds for each test compound on each of the 6 selected panel members are determined and averaged. Those compounds whose average threshold on the select test panel is 100 μg or less are regarded as having cooling activity in accordance with this invention.

[4] = test system: cold receptors; experiment: Cooling effect of consumer product in the mouth / on the tongue; format: in vivo, human
Procedure: To the compositions was added 0.1% of N-n-propyl-p-menthane-3-carboxamide.
Shortly before completion of the blending operation 0.5% by weight of N-(p-menth-3-oyl) morpholine was added to the blender. […]
N-(2-hydroxy-n-propyl)-p-menthane-3-carboxamide was added to a proprietary gin in an amount of 0.08%.
99.5% sucrose and 0.5% citric acid were carefully fused together in the presence of a trace of water. Just before casting the melt onto a chilled plate 0.13% of N,N-dimethyl-p-menthane-3-carboxamide were repidly stirred in. The melt was then cast.
Water was added to icing sugar at 50° C to form a stiff paste. 0.05% of N-ethyl-p-menthane-3-carboxamide was then stirred into a paste and the mixture allowed to set. […]
A proprietary ice cream mixture was mixed in accordance with the manufactures instructions. Shortly before freezing N-p-menth-3-oyl-β-aminopropionic acid n-propyl ester was added in an amount of 0.05%. […]

[5] = test system: cold receptors; experiment: Cooling effect in the stomach after swallowing tablet; format: in vivo, human; conditions: 0.05%
Source text: Added to the mixture during grinding was 0.05% of N-ethyl-p-menthane- 3-carboxamide. After mixing the mixture was pressed into 0.5 g tablets.
Soluble aspirin (calcium acetylsalicylate) tablets were impregnated with 0.05% of N-ethyl-p-menthane-3-carboxamide by absorption in the tablet of a metered drop of an ethanolic solution of the carboxamide.

[6] = test system: cold receptors; experiment: Cooling effect of eye lotion when used to bathe the eyes; format: in vivo, human; conditions: Example 9, eye lotion, 0.003%, eyeball and eyelids
Procedure: To the formulation was added 0.003%, based on the total composition of N-(2-hydroxyethyl)-p-menthane carboxamide.

[7] = Example 2, after shave lotion, 2.0%, face

For `CC(C)C1CCC(C)C(O)C1O` (stereo not shown) [2,3-p-menthane diol], the “cooling taste or refreshing effect” value [1] is given as “sharp cooling taste”.
With `CC1CCC(C(C)C)C(C(=O)N2CCOCC2)C1` (stereo not shown) [--CH2 CH2 OCH2 CH2 --, N-(p-menth-3-oyl)morpholine] the “cooling effect on skin” value ([2]; Example 11, applied to the skin as an alcoholic solution) was “relatively weak”, the “Threshold (average minimum quantity to produce a noticeable cooling effect)” value (shortened to “Threshold”) [3] was 5.5 µg and the “cooling effect on mucous membranes of the mouth” value ([4]; Example 11, applied to the mucous membranes of the mouth) was “very pronounced”. For the same compound, the cooling effect ([4]; Example 11, toothpaste, 0.5%, mouth) was “a strong cooling effect is noticed in the mouth”.
With `CC1CCC(C(C)C)C(C(=O)N(CCO)CCO)C1` (stereo not shown) [--CH2 CH2 OH, --CH2 CH2 OH, N,N-bis(2-hydroxyethyl)-p-menthane-3-carboxamide] the “Threshold” value [3] was 50 µg and the cooling effect ([4]; Example 18, chewing gum, 5.0%, mouth) was “marked cooling effect in the mouth”.
For `CC1CCC(C(C)C)C(C(=O)N(C)C)C1` (stereo not shown) [--CH3, --CH3, N,N-dimethyl-p-menthane-3-carboxamide], the cooling effect ([2]; Example 1, aerosol shaving soap, 1.0%, face) was “a fresh cool sensation was distinctly noticeable on the face”, the cooling effect [2, 7] was “a clearly noticeable cooling effect became apparent after a short interval of time” and the “Threshold” value [3] was 1.5 µg. For the same compound, the cooling effect ([4]; Example 16, boiled sweet, 0.13%, mouth) was “marked cooling effect on the mouth”.
In the case of `CCNC(=O)C1CC(C)CCC1C(C)C` (stereo not shown) [H, --C2 H5, N-ethyl-p-menthane-3-carboxamide], the cooling effect [2, 7] is reported as “a clearly noticeable cooling effect became apparent after a short interval of time”, the cooling effect ([2]; Example 24, cleansing tissue, 1.0% in liquid, skin) is reported as “a fresh cool sensation developed on the skin after a short interval” and the “Threshold” value [3] is reported as 0.3 µg. For the same compound, the cooling effect ([5]; Example 20, indigestion tablet) was “after a short interval of time a noticeable cooling effect in the stomach”, the cooling effect ([5]; Example 23, soluble aspirin tablet) was “a quite noticeable cooling effect developed in the stomach after a short interval” and the cooling effect ([4]; Example 12, toothpick, 0.01 mg, tongue) was “a distinct cooling effect is noticeable after a short period of time”. For the same compound, the cooling effect ([4]; Example 17, mint sweet, 0.05%, mouth) was “characteristic cooling effect in the mouth of peppermint” and the cooling effect ([4]; Example 25, water soluble adhesive on label, 0.025%, tongue) was “a pleasant cooling sensation on the tongue”.
With `CCCNC(=O)C1CC(C)CCC1C(C)C` (stereo not shown) [H, --C3 H7 (n), N-n-propyl-p-menthane-3-carboxamide] the cooling effect ([2]; Example 13, talcum powder, 3.0%) was “freshening and cooling effect”, the “Threshold” value [3] was 0.8 µg and the cooling effect ([4]; Example 10, mouthwash concentrate, 0.1%, diluted with approximately 10 times its own volume of water) was “a strong and long lasting cooling effect is obtained in the mouth”.
For `CC1CCC(C(C)C)C(C(=O)NC(C)(C)CO)C1` (stereo not shown) [H, --C(CH3)2 CH2 OH, N-(1,1-dimethyl-2-hydroxyethyl)-p-menthane-3-carboxamide], the “Threshold” value [3] was 0.4 µg and the cooling effect ([4]; Example 14, soft drink, 0.02% in concentrate, diluted with water) was “pleasantly cool after-effect”.
For `CC1CCC(C(C)C)C(C(=O)NCCO)C1` (stereo not shown) [H, --CH2 CH2 OH, N-(2-hydroxyethyl)-p-menthane carboxamide], the “Threshold” value [3] was 5 µg and the cooling effect [6] was “a cool fresh sensation is apparent on the eyeball and eyelids”.
In the case of `CC(O)CNC(=O)C1CC(C)CCC1C(C)C` (stereo not shown) [H, --CH2 CH(OH)CH3, N-(2-hydroxy-n-propyl)-p-menthane-3-carboxamide], the cooling effect ([2]; Example 5, hair shampoo, 3.3%, scalp) is reported as “a fresh, cool sensation is noticed on the scalp”, the cooling effect ([2]; Example 7, solid cologne, 3.0%, forehead) is reported as “a very strong and long lasting cooling effect is obtained” and the “Threshold” value [3] is reported as 5.5 µg. The cooling effect ([4]; Example 15, gin, 0.08%, mouth) was “a very strong cooling after-effect is obtained in the mouth”.
In the case of `CNC(=O)C1CC(C)CCC1C(C)C` (stereo not shown) [H, --CH3, N-methyl-p-menthane-3-carboxamide], the cooling effect ([2]; Example 4, deodorant composition, 1.3%, skin) is reported as “definte cooling sensation on the skin” and the “Threshold” value [3] is reported as 1.1 µg.
In the case of `CCC(CC)C(=O)N(C)C` [N,N-Dimethyl 2-ethylbutanamide], the “cooling taste or refreshing effect” value [1] is listed as “refreshing effect”.
For `CCCOC(=O)CCNC(=O)C1CC(C)CCC1C(C)C` (stereo not drawn) [N-p-menth-3-oyl-β-aminopropionic acid n-propyl ester], the cooling effect ([4]; Example 19, ice cream, 0.05%) was “a cooling effect is noticeable which persists after the cooling effect attributable to the temperature of the ice cream has disappeared”.
